Data published in ChEMBL document CHEMBL6078630, “Design, synthesis, and bioactivity investigation of novel cyclic lipopeptide antibiotics targeting top-priority multidrug-resistant gram-negative bacteria” (Eur J Med Chem, 2024).
Converted amounts (≈) assume the structure as drawn. Bridge positions count the residues as written; N and C are the ends. Square brackets hold non-standard residues; d marks the D form. Peptide text beside a SMILES is read from it. * marks the point of attachment. Octanoyl = CCCCCCCC(=O)*; Dab = NCC[C@H](N)C(=O)O

What was measured:
[1] = test system: Acinetobacter baumannii; assay: Antibacterial activity against carbapenem-sensitive Acinetobacter baumannii clinical isolate 19-1 assessed as inhibition of bacterial growth incubated for 16 to 20 hrs by CLSI protocol based broth microdilution method; assay type: functional; conditions: time 16-20 hrs
[2] = Renal cytotoxicity against HK-2 cells incubated for 72 hrs by CCK8 assay; assay type: toxicity, cell-based; conditions: human
[3] = test system: Klebsiella pneumoniae; assay: Antibacterial activity against carbapenem-resistant Klebsiella pneumoniae ATCC BAA-1705 assessed as inhibition of bacterial growth incubated for 16 to 20 hrs by CLSI protocol based broth microdilution method; assay type: functional; conditions: time 16-20 hrs
[4] = test system: Escherichia coli; assay: Antibacterial activity against Escherichia coli ATCC BAA-2523 assessed as inhibition of bacterial growth incubated for 16 to 20 hrs by CLSI protocol based broth microdilution method; assay type: functional; conditions: time 16-20 hrs
[5] = test system: Klebsiella pneumoniae; assay: Antibacterial activity against carbapenem-resistant Klebsiella pneumoniae clinical isolate KPN+19-15 assessed as inhibition of bacterial growth incubated for 16 to 20 hrs by CLSI protocol based broth microdilution method; assay type: functional; conditions: time 16-20 hrs
[6] = test system: Pseudomonas aeruginosa; assay: Antibacterial activity against Pseudomonas aeruginosa ATCC 27853 assessed as inhibition of bacterial growth incubated for 16 to 20 hrs by CLSI protocol based broth microdilution method; assay type: functional; conditions: time 16-20 hrs
[7] = test system: Escherichia coli; assay: Antibacterial activity against carbapenem-resistant Escherichia coli ATCC BAA-2340 assessed as inhibition of bacterial growth incubated for 16 to 20 hrs by CLSI protocol based broth microdilution method; assay type: functional; conditions: time 16-20 hrs
[8] = test system: Pseudomonas aeruginosa; assay: Antibacterial activity against carbapenem-resistant Pseudomonas aeruginosa clinical isolate 19-3 assessed as inhibition of bacterial growth incubated for 16 to 20 hrs by CLSI protocol based broth microdilution method; assay type: functional; conditions: time 16-20 hrs
[9] = test system: Acinetobacter baumannii; assay: Antibacterial activity against Acinetobacter baumannii NCTC 13304 (OXA-27) assessed as inhibition of bacterial growth incubated for 16 to 20 hrs by CLSI protocol based broth microdilution method; assay type: functional; conditions: time 16-20 hrs

| Compound | MIC [1] [µg/mL] | IC50 at 72 h [2] [µg/mL] | MIC [3] [µg/mL] | MIC [4] [µg/mL] | MIC [5] [µg/mL] | MIC [6] [µg/mL] | MIC [7] [µg/mL] | MIC [8] [µg/mL] | MIC [9] [µg/mL] |
| --- | --- | --- | --- | --- | --- | --- | --- | --- | --- |
| CC(C)CCCCC(=O)N[C@@H](CCN)C(=O)N[C@H](C(=O)N[C@@H](CCCCN)C(=O)N[C@H]1CCNC(=O)[C@H]([C@@H](C)O)NC(=O)[C@H](CCN)NC(=O)[C@H](CCN)NC(=O)[C@H]([C@@H](C)O)NC(=O)[C@@H](Cc2ccccc2)NC(=O)[C@H](CCN)NC1=O)[C@@H](C)O | 2 (≈ 1.66 µM) | > 500 | 0.25 (≈ 0.207 µM) | 0.25 (≈ 0.207 µM) | 0.25 (≈ 0.207 µM) | > 64 | 0.25 (≈ 0.207 µM) | 4 (≈ 3.32 µM) | 1 (≈ 0.83 µM) |
| CC(C)C[C@@H]1NC(=O)[C@H](CCN)NC(=O)[C@@H](NC(=O)[C@@H](CO)NC(=O)[C@@H](NC(=O)[C@H](CCN)NC(=O)CCCCCCC(=O)O)[C@@H](C)O)CCNC(=O)[C@H]([C@@H](C)O)NC(=O)[C@H](CCN)NC(=O)[C@H](CCN)NC(=O)[C@H]([C@@H](C)O)NC1=O | 0.5 (≈ 0.431 µM) | > 500 | 0.5 (≈ 0.431 µM) | 0.125 (≈ 0.108 µM) | 0.25 (≈ 0.215 µM) | 8 (≈ 6.89 µM) | 0.125 (≈ 0.108 µM) | 8 (≈ 6.89 µM) | 0.25 (≈ 0.215 µM) |
| CC(C)CCCCC(=O)N[C@@H](CCN)C(=O)N[C@H](C(=O)N[C@H](CO)C(=O)N[C@H]1CCNC(=O)[C@H]([C@@H](C)O)NC(=O)[C@H](CCN)NC(=O)[C@H](CCN)NC(=O)[C@H](CC(C)C)NC(=O)[C@H](Cc2ccccc2)NC(=O)[C@H](CCN)NC1=O)[C@@H](C)O | ≤ 0.03 | > 500 | 0.125 (≈ 0.106 µM) | 0.06 (≈ 0.051 µM) | ≤ 0.03 | 1 (≈ 0.85 µM) | ≤ 0.03 | 2 (≈ 1.7 µM) | ≤ 0.03 |
| CCCCCCCC(=O)N[C@@H](CCN)C(=O)N[C@H](C(=O)N[C@@H](CCN)C(=O)N[C@H]1CCNC(=O)[C@H]([C@@H](C)O)NC(=O)[C@H](CCN)NC(=O)[C@H](CCN)NC(=O)[C@H]([C@@H](C)O)NC(=O)[C@@H](CCC)NC(=O)[C@H](CCN)NC1=O)[C@@H](C)O [listing 1 of 2 here] | – | > 500 | – | – | – | – | – | – | – |
| CCCCCCCC(=O)N[C@@H](CCN)C(=O)N[C@H](C(=O)N[C@@H](CCN)C(=O)N[C@H]1CCNC(=O)[C@H]([C@@H](C)O)NC(=O)[C@H](CCN)NC(=O)[C@H](CCN)NC(=O)[C@H]([C@@H](C)O)NC(=O)[C@@H](CCC)NC(=O)[C@H](CCN)NC1=O)[C@@H](C)O [listing 2 of 2 here] | 4 (≈ 3.54 µM) | – | 2 (≈ 1.77 µM) | 0.25 (≈ 0.221 µM) | 0.5 (≈ 0.443 µM) | 1 (≈ 0.885 µM) | 0.5 (≈ 0.443 µM) | 1 (≈ 0.885 µM) | 4 (≈ 3.54 µM) |
| CC(C)CCCCC(=O)N[C@@H](CCN)C(=O)N[C@H](C(=O)N[C@H](CCCCN)C(=O)N[C@H]1CCNC(=O)[C@H]([C@@H](C)O)NC(=O)[C@H](CCN)NC(=O)[C@H](CCN)NC(=O)[C@H]([C@@H](C)O)NC(=O)[C@@H](Cc2ccccc2)NC(=O)[C@H](CCN)NC1=O)[C@@H](C)O | 0.5 (≈ 0.415 µM) | > 500 | 0.125 (≈ 0.104 µM) | 0.125 (≈ 0.104 µM) | 0.25 (≈ 0.207 µM) | 32 (≈ 26.5 µM) | 1 (≈ 0.83 µM) | 4 (≈ 3.32 µM) | 0.5 (≈ 0.415 µM) |
| CC(C)CCCCC(=O)N[C@@H](CCN)C(=O)N[C@H](C(=O)N[C@@H](CO)C(=O)N[C@H]1CCNC(=O)[C@H]([C@@H](C)O)NC(=O)[C@H](CCN)NC(=O)[C@H](CCN)NC(=O)[C@H]([C@@H](C)O)NC(=O)[C@@H](CC(C)C)NC(=O)[C@H](CCN)NC1=O)[C@@H](C)O | 8 (≈ 7.08 µM) | > 500 | 4 (≈ 3.54 µM) | 2 (≈ 1.77 µM) | 4 (≈ 3.54 µM) | > 64 | 2 (≈ 1.77 µM) | 64 (≈ 56.6 µM) | 8 (≈ 7.08 µM) |
| C[C@@H](O)[C@@H]1NC(=O)[C@H](CCN)NC(=O)[C@H](CCN)NC(=O)[C@H]([C@@H](C)O)NC(=O)[C@H](Cc2ccccc2)NC(=O)[C@H](CCN)NC(=O)[C@@H](NC(=O)[C@@H](CO)NC(=O)[C@@H](NC(=O)[C@H](CCN)NC(=O)CCCCCCC(=O)O)[C@@H](C)O)CCNC1=O | 0.06 (≈ 0.0502 µM) | > 500 | 0.06 (≈ 0.0502 µM) | ≤ 0.03 | ≤ 0.03 | 4 (≈ 3.35 µM) | ≤ 0.03 | 4 (≈ 3.35 µM) | ≤ 0.03 |
| CCCCCCCC(=O)N[C@@H](CCN)C(=O)N[C@H](C(=O)N[C@@H](CCN)C(=O)N[C@H]1CCNC(=O)[C@H]([C@@H](C)O)NC(=O)[C@H](CCN)NC(=O)[C@H](CCN)NC(=O)[C@H]([C@@H](C)O)NC(=O)[C@@H](Cc2ccccc2)NC(=O)[C@H](CCN)NC1=O)[C@@H](C)O (Octanoyl-[Dab]T[Dab][Dab][Dab][dF]T[Dab][Dab]T; lactam 4-C) | – | > 500 | – | – | – | – | – | – | – |
